Experiments:
[1] = test system: prostaglandin PGF2α levels; assay: PGF2α levels in IL-1β stimulated NHAC cells; format: cell-based; conditions: IL-1β 10 ng/ml, 24 hours, fractions 64-32 μg/ml
Experimental: (§1) To study the anti-inflammatory activities, assays Fr 1, Fr i, Fr V and Fr Vi were selected and tested at a concentration of ≤64 μg/ml. The assays carried out to measure the 1) Nitric Oxide (NO) levels, 2) prostaglandin PGE2 levels, 3) prostaglandin PGF2α levels. NHAC cells at passage 3, were stimulated first with proinflammatory cytokine IL-1β at a predetermined concentration 10 ng/ml overnight, NHAC Cells were then treated with fractions in the presence of IL-1β 10 ng/ml for 24 hours and cell culture supernatant was collected to measure NO, PGE2 and PGF2α levels. Griess Reagent Kit for Nitrite Determination (Molecular Probes, Invitrogen) was used as per kit instructions. For estimation of PGs, High Sensitivity PGE2 & PGF2α EIA kits (Assay Designs Inc.) were used.

[2] = test system: prostaglandin PGE2 levels; assay: PGE2 levels in IL-1β stimulated NHAC cells; format: cell-based; conditions: IL-1β 10 ng/ml, 24 hours, fractions ≤64 μg/ml
Experimental: as §1

COc1ccc2c(c1)c(CC(=O)O)c(C)n2C(=O)c1ccc(Cl)cc1 [Indomethacin]
IL-1β induced PGF2α levels [1]: significantly reduced
IL-1β induced PGE2 levels [2]: significantly reduced

Reference: US10376550B2, “Nutraceutical composition and methods of use” (Dacy Tech Party Ltd., priority 2007, dated 2019)
